Source: ChEMBL document CHEMBL3865816, “Design, synthesis and biological evaluation of novel azaspiro analogs of linezolid as antibacterial and antitubercular agents” (Eur J Med Chem, 2016)
Converted amounts (≈) assume the structure as drawn.

Experiments:
Type in all cases: functional
[1] = tested on: Pseudomonas aeruginosa; assay: Antibacterial activity against Pseudomonas aeruginosa NCIM 2036 at 3 ug/ml measured after 8 hrs by spectrophotometric method; details: NCIM 2036, 8 h
[2] = tested on: Bacillus subtilis; assay: Antibacterial activity against Bacillus subtilis NCIM 2010 at 3 ug/ml measured after 12 hrs by spectrophotometric method; details: NCIM 2010, 12 h
[3] = tested on: Staphylococcus aureus; assay: Antibacterial activity against Staphylococcus aureus NCIM 2079 at 3 ug/ml measured after 12 hrs by spectrophotometric method; details: NCIM 2079, 12 h
[4] = tested on: Mycobacterium tuberculosis; assay: Antitubercular activity against dormant stage Mycobacterium tuberculosis H37Ra at 10 ug/ml measured after 12 days by XTT assay; details: 288 h
[5] = tested on: Bacillus subtilis; assay: Antibacterial activity against Bacillus subtilis NCIM 2010 at 10 ug/ml measured after 12 hrs by spectrophotometric method; details: NCIM 2010, 12 h
[6] = tested on: Mycobacterium tuberculosis; assay: Antitubercular activity against dormant stage Mycobacterium tuberculosis H37Ra measured after 12 days by XTT assay; details: 288 h
[7] = tested on: Escherichia coli; assay: Antibacterial activity against Escherichia coli NCIM 2688 measured after 8 hrs by spectrophotometric method; details: NCIM 2688, 8 h
[8] = tested on: Staphylococcus aureus; assay: Antibacterial activity against Staphylococcus aureus NCIM 2079 measured after 12 hrs by spectrophotometric method; details: NCIM 2079, 12 h
[9] = tested on: Pseudomonas aeruginosa; assay: Antibacterial activity against Pseudomonas aeruginosa NCIM 2036 measured after 8 hrs by spectrophotometric method; details: NCIM 2036, 8 h
[10] = tested on: Staphylococcus aureus; assay: Antibacterial activity against Staphylococcus aureus NCIM 2079 at 30 ug/ml measured after 12 hrs by spectrophotometric method; details: NCIM 2079, 12 h
[11] = tested on: Mycobacterium tuberculosis; assay: Antitubercular activity against dormant stage Mycobacterium tuberculosis H37Ra at 3 ug/ml measured after 12 days by XTT assay; details: 288 h
[12] = tested on: Escherichia coli; assay: Antibacterial activity against Escherichia coli NCIM 2688 at 3 ug/ml measured after 8 hrs by spectrophotometric method; details: NCIM 2688, 8 h
[13] = tested on: Bacillus subtilis; assay: Antibacterial activity against Bacillus subtilis NCIM 2010 measured after 12 hrs by spectrophotometric method; details: NCIM 2010, 12 h
[14] = tested on: Escherichia coli; assay: Antibacterial activity against Escherichia coli NCIM 2688 at 10 ug/ml measured after 8 hrs by spectrophotometric method; details: NCIM 2688, 8 h
[15] = tested on: Pseudomonas aeruginosa; assay: Antibacterial activity against Pseudomonas aeruginosa NCIM 2036 at 10 ug/ml measured after 8 hrs by spectrophotometric method; details: NCIM 2036, 8 h
[16] = tested on: Escherichia coli; assay: Antibacterial activity against Escherichia coli NCIM 2688 at 30 ug/ml measured after 8 hrs by spectrophotometric method; details: NCIM 2688, 8 h
[17] = tested on: Bacillus subtilis; assay: Antibacterial activity against Bacillus subtilis NCIM 2010 at 30 ug/ml measured after 12 hrs by spectrophotometric method; details: NCIM 2010, 12 h
[18] = tested on: Mycobacterium tuberculosis; assay: Antitubercular activity against dormant stage Mycobacterium tuberculosis H37Ra at 30 ug/ml measured after 12 days by XTT assay; details: 288 h
[19] = tested on: Staphylococcus aureus; assay: Antibacterial activity against Staphylococcus aureus NCIM 2079 at 10 ug/ml measured after 12 hrs by spectrophotometric method; details: NCIM 2079, 12 h
[20] = tested on: Pseudomonas aeruginosa; assay: Antibacterial activity against Pseudomonas aeruginosa NCIM 2036 at 30 ug/ml measured after 8 hrs by spectrophotometric method; details: NCIM 2036, 8 h

Row | SMILES | inhibition at 3 µg/mL [1] [%] | inhibition at 3 µg/mL [2] [%] | inhibition at 3 µg/mL [3] [%] | inhibition at 10 µg/mL [4] [%] | inhibition at 10 µg/mL [5] [%] | IC50 [6] [µg/mL] | MIC [6] [µg/mL] | IC50 [7] [µg/mL] | MIC [7] [µg/mL] | IC50 [8] [µg/mL] | MIC [8] [µg/mL] | IC50 [9] [µg/mL] | MIC [9] [µg/mL] | inhibition at 30 µg/mL [10] [%] | inhibition at 3 µg/mL [11] [%] | inhibition at 3 µg/mL [12] [%] | IC50 [13] [µg/mL] | MIC [13] [µg/mL] | inhibition at 10 µg/mL [14] [%] | inhibition at 10 µg/mL [15] [%] | other results
1 | COCC(=O)NC[C@H]1CN(c2ccc(N3CC4(COC4)C3)c(F)c2)C(=O)O1 | 14.4 | 51.2 | 72.3 | -13.7 | 77.7 | > 100 | > 100 | > 100 | > 100 | > 100 | > 100 | > 100 | > 100 | 98.8 | -22.9 | 61.5 | > 100 | > 100 | 65.4 | 37.1 | inhibition at 30 µg/mL [16]: 66.6%; inhibition at 30 µg/mL [17]: 95.2%; inhibition at 30 µg/mL [18]: 50.1%; inhibition at 10 µg/mL [19]: 92.2%; inhibition at 30 µg/mL [20]: 63.7%
2 | O=C1O[C@@H](CNS(=O)(=O)c2cc([N+](=O)[O-])ccc2Cl)CN1c1ccc(N2CC3(COC3)C2)c(F)c1 | -6.17 | 47 | 42 | 29.2 | 62.1 | > 100 | > 100 | > 100 | > 100 | > 100 | > 100 | > 100 | > 100 | 89.5 | 24.4 | 2.37 | > 100 | > 100 | 15.8 | 38.6 | inhibition at 30 µg/mL [16]: 49.6%; inhibition at 30 µg/mL [17]: 88.4%; inhibition at 30 µg/mL [18]: 59.6%; inhibition at 10 µg/mL [19]: 55%; inhibition at 30 µg/mL [20]: 68.6%
3 | O=C1O[C@@H](CNS(=O)(=O)c2cccc(C(F)(F)F)c2)CN1c1ccc(N2CC3(COC3)C2)c(F)c1 | 0.66 | 11.2 | -2.71 | -59 | 17.5 | > 100 | > 100 | 0.57 (≈ 1.11 µM) | 3.03 (≈ 5.88 µM) | > 100 | > 100 | > 100 | > 100 | 19.5 | 5.38 | 90.5 | > 100 | > 100 | 97.5 | 43 | inhibition at 30 µg/mL [16]: 99.5%; inhibition at 30 µg/mL [17]: 25%; inhibition at 30 µg/mL [18]: 25.1%; inhibition at 10 µg/mL [19]: 17.3%; inhibition at 30 µg/mL [20]: 70.8%
4 | O=C(NC[C@H]1CN(c2ccc(N3CC4(COC4)C3)c(F)c2)C(=O)O1)c1cccnc1 | 40.9 | 60.8 | 78.2 | 5.21 | 77.1 | > 100 | > 100 | 0.67 (≈ 1.62 µM) | 8.33 (≈ 20.2 µM) | 1.03 (≈ 2.5 µM) | 18.3 (≈ 44.3 µM) | > 100 | > 100 | 96.2 | 3.2 | 84.8 | > 100 | > 100 | 90.5 | 49.5 | inhibition at 30 µg/mL [16]: 94.8%; inhibition at 30 µg/mL [17]: 99.2%; inhibition at 30 µg/mL [18]: 63.1%; inhibition at 10 µg/mL [19]: 85.9%; inhibition at 30 µg/mL [20]: 56.3%
5 | O=C1O[C@@H](CNC(=S)Nc2ccc([N+](=O)[O-])cc2)CN1c1ccc(N2CC3(COC3)C2)c(F)c1 | 9.11 | 62.7 | 66.7 | 4.66 | 76.2 | > 100 | > 100 | > 100 | > 100 | > 100 | > 100 | > 100 | > 100 | 81 | 9.41 | 51.8 | > 100 | > 100 | 61 | 41.8 | inhibition at 30 µg/mL [16]: 65.5%; inhibition at 30 µg/mL [17]: 80.4%; inhibition at 30 µg/mL [18]: -13.5%; inhibition at 10 µg/mL [19]: 74.5%; inhibition at 30 µg/mL [20]: 73.6%
